Measurements as given in US20130064812A1, “COMBINATION THERAPIES FOR HEMATOLOGIC MALIGNANCIES” (Gilead Calistoga LLC, priority 2011, published 2013).

How the values were obtained:
PIP5Kα = PIP5Kα (Homo sapiens, UniProt Q99755); test: InvitroGen Adapta kinase assay, PIP5Kα; assay type: biochemical; settings: Other Phosphoinositide kinases; head prints no unit
LB cells = test: MM cell growth with IGF-1 or IL-6 (MTT); assay type: cell-based, human; settings: 0.625 μM-[…], 48 h, with IL-6 or IGF-1
Protocol: LB cells ([…]) were cultured for 48 h with control media; with the compound of formula I, in the presence or absence of either IL-6 or IGF-1. […] Chemicon International) dye absorbance. Cells were pulsed with 10 μL of 5 mg/mL MTT to each well for the last 4 hours of 48-hour cultures, followed by 100 μL isopropanol containing 0.04 N HCl.

[1] = system: T-ALL and B-ALL leukemic cell lines; test: ALL cell lines: AlamarBlue viability and Akt phosphorylation; assay type: cell-based; settings: for cellular viability in ALL cell lines: 48 hours
Protocol: Viability assays of cell lines were performed using the AlamarBlue assay (Invitrogen). Cells (1×10^6 per well) in a volume of 100 μL were placed in a 96-well flat-bottom plate and the compound of formula I (100 μL per well at 2× final concentration) or medium alone was added to the plates. All were performed in quadruplicate. Cells were incubated for fixed times (48 hours). After the incubation, 10 μL AlamarBlue® was added to each well. Cells were incubated for 4 hours and the optical density at 530-560 nm was obtained using a SpectraMax® M5 plate reader 2001. Cell viability was expressed as a percentage of absorption between treated cells/control sample.

[2] = system: HS-578T, T47D, and MCF7 cells; test: Apoptosis in breast cancer cell lines (Annexin V-FITC/7AAD); assay type: cell-based; settings: 24 h
Protocol: HS-578T, T47D, and MCF7 cells were treated with the compound of formula I or corresponding DMSO concentrations for 24 h. The percentage of apoptotic cells was determined by Annexin V-FITC/7AAD staining. Bottom left, viable cells ([…]); bottom right, early apoptotic cells (Annexin V-FITC positive only); top right, mid-late apoptotic cells (Annexin V-FITC/7AAD double-positive); and top left, late apoptotic/necrotic (7AAD positive only). Percentages of cells in each quadrant are indicated except for the bottom left quadrant (viable cells).

[3] = system: mantle cell lymphoma lesions; test: Lesion area in a patient with mantle cell lymphoma; assay type: in vivo, human; settings: 50 mg BID oral, 28 days (1 cycle)
Protocol: This example provides data relating to the area of lesions of a patient with mantle cell lymphoma after 1 cycle of treatment (28 days) with the compound of formula I. The area of 6 lesions was measured prior to treatment and after a cycle of treatment. […] The results are summarized in a bar graph found in FIG. 12.

leukemia cell lines = test: cells; assay type: cell-based; settings: for apoptosis in leukemia cell lines: 1 μM or 10 μM, 24 hrs; for cellular viability of leukemia cell lines: 24 hours
Protocol: Proliferation assays (AlamarBlue®) on ALL cell lines grown in the presence of 10% FBS serum and measurements were taken at 24 hrs. Proliferation was measured in triplicate wells in 96-well plates.
The percentage of apoptotic cells was determined by Annexin V-FITC/7AAD staining.

LB and INA-6 cells = test: MM cell growth with IL-6 or IGF-1 ([3H]-thymidine); assay type: cell-based, human; settings: 5.0 or 10 μM; IL-6 1 and 10 ng/ml, IGF-1 10 and 100 ng/mL
Protocol: DNA synthesis was determined by measuring [3H]-thymidine incorporation during the last 8 h of 72 h cultures. Data represent means (±SD) of triplicate cultures.

AKT and ERK1/2 = AKT and ERK1/2 in HuVEC (immunoblot); assay type: cell-based, human; settings: 8 h
Excerpt: Actin was used as a loading control.

FL cell lines = test: PI3K signaling and apoptosis in follicular lymphoma cell lines; assay type: cell-based
[4] = system: primary MCL cells and MCL cell lines; test: PI3K signaling in primary MCL cells and MCL cell lines; assay type: cell-based, human
[5] = system: relapsed or refractory indolent B-cell NHL and CLL; test: Clinical study, combination with rituximab or bendamustine, 20 patients (Example 39); settings: human, in vivo
Protocol: (§1) 20 patients were enrolled, including 12 with iNHL and 8 with CLL. All patients received the compound of formula I, either 100 mg orally twice per day (BID) or 150 mg orally twice per day (BID) for as long as the patient was benefiting. Patients also received either rituximab 375 mg/m^2 administered weekly for 8 weeks, starting on Day 1 of Cycle 1, or bendamustine 90 mg/m^2 administered on Days 1 and 2 of each cycle for 6 cycles. Tumor response was evaluated according to standard criteria.

[6] = system: previously treated B-cell malignancies (iNHL, CLL); test: Clinical study, combination with rituximab or bendamustine, 49 patients (Example 42); settings: human, in vivo
Excerpt: 49 patients were enrolled in the study, including 27 with iNHL and 22 with CLL. At the baseline, patients had adverse prognostic characteristics, including older age, bulky adenopathy, and refractory disease. All patients had received ≧1 prior treatment regimen and some had received as many 9 prior regimens. Prior treatment included rituximab, alkylating agents and/or fludarabine; the majority of patients with iNHL had been treated with prior anthracycline-containing therapy. Follow-up was early in many patients, with durations of therapy ranging from 1 to 12 cycles.
as §1, with “All” for “20 patients were enrolled, including 12 with iNHL and 8 with CLL. All”

[7] = system: CLL cells co-cultured with MSCs; test: CLL cells co-cultured with marrow stromal cells (MSC), DiOC6/PI viability; settings: compound 5 μM; bendamustine, fludarabine, dexamethasone 10 μM
Excerpt: The viable cell population was characterized by bright DiOC6 staining and PI exclusion, and was gated in the lower right corner of each contour plot.
Viabilities of drug-treated samples were normalized to the viabilities of control samples at the respective timepoints (100%).

PI3K-δ = test: PI3K ELISA assay on CLL cell lysates with lenalidomide; assay type: cell-based, human; settings: 0.5 μM lenalidomide; 1 or 10 μM compound added to lysate; N=9
Protocol: PI3K assay was preformed on whole cell lysates from CLL cells. The ELISA assay was performed according to the manufacture's instructions (Echelon Biosciences, Salt Lake City, Utah).
To first confirm the specificity of PI3-kinase activation, the direct increase in the enzymatic activity of PI3K following treatment with lenalidomide was determined. […] Results were calculated relative to μg of protein. Signaling with lenalidomide through the PI3K pathway can occur through four catalytic isoforms: p110α, p110β, p110γ, and p110δ.

Chain of PIP5Kα (Q99755 whole entry): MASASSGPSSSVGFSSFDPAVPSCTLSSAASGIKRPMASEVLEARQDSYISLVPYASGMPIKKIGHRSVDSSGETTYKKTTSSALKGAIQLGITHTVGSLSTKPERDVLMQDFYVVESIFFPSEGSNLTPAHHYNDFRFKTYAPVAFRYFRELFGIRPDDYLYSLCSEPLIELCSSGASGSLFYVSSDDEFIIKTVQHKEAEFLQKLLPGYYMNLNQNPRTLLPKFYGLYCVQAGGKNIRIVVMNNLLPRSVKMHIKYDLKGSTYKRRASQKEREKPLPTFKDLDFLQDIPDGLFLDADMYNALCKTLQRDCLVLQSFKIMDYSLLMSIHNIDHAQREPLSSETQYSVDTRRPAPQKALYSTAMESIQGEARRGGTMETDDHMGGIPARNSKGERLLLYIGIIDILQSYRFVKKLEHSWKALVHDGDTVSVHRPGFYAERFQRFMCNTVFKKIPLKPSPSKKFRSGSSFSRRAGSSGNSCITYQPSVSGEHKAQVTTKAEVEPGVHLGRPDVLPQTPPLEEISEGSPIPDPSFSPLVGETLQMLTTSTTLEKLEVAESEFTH

**Q.** What does the source list for CC[C@H](Nc1ncnc2[nH]cnc12)c1nc2cccc(F)c2c(=O)n1-c1ccccc1 [Compound I, 5-fluoro-3-phenyl-2-[1-(9H-purin-6-ylamino)-propyl]-3H-quinazolin-4-one]?
**A.** IC50 (PIP5Kα): > 1000 nM; MM cell growth (LB cells): inhibits MM cell growth even in the presence of cell growth stimulatory cytokines; Akt phosphorylation in ALL cell lines [1]: reduction in Akt phosphorylation; cellular viability in ALL cell lines [1]: significant reduction in cell viability in all six cell lines; cellular viability in ALL cell lines ([1]; listed as compound I): substantial reduction in cellular viability; apoptosis in breast cancer cell lines [2]: cytotoxicity to three different breast cancer cell lines; apoptosis in breast cancer cell lines ([2]; listed as compound of formula I): induces apoptosis in breast cancer cell lines; decrease in tumor burden [3]: 44%; apoptosis in leukemia cell lines (leukemia cell lines): increase in apoptosis in the treated cells; apoptosis in leukemia cell lines (leukemia cell lines; listed as compound I): induces apoptosis in leukemia cell lines; cytotoxicity at 10 µM (leukemia cell lines; 24 h, read-out: reduction of viability): 40 to 50%; cellular viability of leukemia cell lines (leukemia cell lines): strongly affected by 5-10 micromolar concentrations; cellular viability of leukemia cell lines (leukemia cell lines; listed as compound I): reduces cellular viability in a dose dependent manner; growth inhibition in the presence of IL-6 or IGF-1 (LB and INA-6 cells): Neither IL-6 nor IGF-1 protected against the growth inhibition; phosphorylation and expression of AKT and ERK1/2 in HuVEC (AKT and ERK1/2): markedly down regulated; pAkt, Akt, pS6 and S6 in FL cell lines (FL cell lines): reduction in the production of pAkt, Akt, pS6 and S6; cleavage of PARP and Caspase-3 in FL cell lines (FL cell lines; 24 hours, 0.1 μM and 0.5 μM): Cleavage of PARP and Caspase-3 is observed; pAkt in MCL lines exposed to survival factors [4]: significant reduction of pAkt; constitutive PI3K signaling in primary MCL cells ([4]; two patients, 0.1 μM or 1 μM): block constitutive PI3K signaling in primary MCL cells of two patients in a dose dependent manner; dose-limiting toxicities [5]: No dose-limiting toxicities related to the compound of formula I were observed; dose-limiting toxicities [6]: No dose-limiting toxicities related to the compound of formula I were observed; CLL cell death / survival in co-culture with MSC [7]: sensitized CLL cells to the cytotoxic agents; PI3K enzymatic activity after lenalidomide (PI3K-δ): prevent the increase in PI3K enzymatic activity
